# Assay results from patent US20060287257A1, “Pharmaceutical compositions to treat diseases caused by mycobacterium” (priority 2005, published 2006).
# Tested on: Mycobacterium tuberculosis strain H37Rv
# Test: Screen against Mycobacterium tuberculosis strain H37Rv by serial dilution
# Assay type: cell-based
# Settings: M. tuberculosis H37Rv
# Excerpt: All of the compounds were screened against Mycobacterium tuberculosis strain H37Rv by serial dilution. The minimum inhibitory concentration and degree of inhibition is presented.
Compound,% Inhibition (degree of inhibition),MIC (minimum inhibitory concentration)
"N=C(NCCCCCCNC(=N)NC(=N)Nc1ccc(Cl)cc1)NC(=N)Nc1ccc(Cl)cc1.Sc1nc2ccccc2s1.Sc1nc2ccccc2s1 [Compound 5, chlorhexidine di-2-mercaptobenzthiazole]",90%,1.56 µg/mL
"CCCCCCCCCCCC(=O)O.NC(=NCCCCCCN=C(N)N=C(N)Nc1ccc(Cl)cc1)N=C(N)Nc1ccc(Cl)cc1 [Compound 6, chlorhexidine dilaurate]",99%,3.13 µg/mL
"N=C(NCCCCCCNC(=N)NC(N)=Nc1ccc(Cl)cc1)NC(N)=Nc1ccc(Cl)cc1.NCCCC(O)(P(=O)(O)O)P(=O)(O)O.NCCCC(O)(P(=O)(O)O)P(=O)(O)O [Compound 7, chlorhexidine di [4-amino-1-hydroxybutylidene] bis-phosphonate]",94%,3.13 µg/mL
"N=C(NCCCCCCNC(=N)NC(=N)Nc1ccc(Cl)cc1)NC(=N)Nc1ccc(Cl)cc1.Oc1ccccc1-c1ccccc1.Oc1ccccc1-c1ccccc1 [Compound 9, chlorhexidine di-ortho phenyl phenol]",99%,3.13 µg/mL
"CCCCCCCCCCCCCCCCCC(=O)O.CCCCCCCCCCCCCCCCCC(=O)O.N=C(NCCCCCCNC(=N)NC(=N)Nc1ccc(Cl)cc1)NC(=N)Nc1ccc(Cl)cc1 [Compound 11, chlorhexidine distearate]",99%,3.13 µg/mL
Isoniazide dodecyl benzene sulfonate [Compound 2],99%,0.78 µg/mL
N-cocoylamide-L-argimine ethyl ester triclosanate [Compound 3],94%,1.56 µg/mL
chlorhexidine beta cyclodextrin sulfobutyl ether [Compound 8],94%,3.13 µg/mL
chlorhexidine dithymol [Compound 4],98%,1.56 µg/mL
